Columns and labels:
[1] = system: kidney cells (LLC-PK1 cells); experiment: Inhibition of gentamicin (GM)-induced apoptosis of kidney cells, cell viability by cell counting kit-8; assay type: cell-based
Procedure: Specifically, the cyclo histidine-proline (CHP) was produced by requesting only a target spec (99% purity) from a peptide manufacturer (Bachem; Bubendorf, Switzerland). The gentamycin was purchased from Sigma Chemical Co. (St. Louis, Mo., USA). The kidney cells (LLC-PK1 cells) were purchased from the American Type Culture Collection (ATCC; Manassas, VA, USA). The present inventors simultaneously treated and cultured the kidney cell (LLC-PK1 cell) with CHP 0.1, 1, 5 or 10 mg/mL respectively together with GM 5 mg/mL for 6 hours (FIG. 1A).
(§1) Further, the present inventors pre-treated and pre-cultured the kidney cell (LLC-PK1 cell) with CHP 0.1, 1, 5 or 10 mg/mL for 2 hours and subsequently post-treated and post-cultured the kidney cell (LLC-PK1 cell) with GM 5 mg/mL for 4 hours (FIG. 1B). The cell viability was analyzed using cell counting kit-8 (Dojindo Laboratories; Kumamoto, Japan). Subsequently, the cell viability was measured with a microplate reader (Molecular Devices, LLC; Sunnyvale, CA, USA).

[2] = system: liver cells (Chang liver cells); experiment: Inhibition of acetaminophen (APAP)-induced apoptosis of liver cells, cell viability by cell counting kit-8; assay type: cell-based
Procedure: Specifically, the acetaminophen was purchased from Sigma Chemical Co. (St. Louis, Mo., USA). The liver cells (Chang liver cells) were purchased from the American Type Culture Collection (ATCC; Manassas, VA, USA). The present inventors simultaneously treated and cultured the liver cell (Chang liver cell) with CHP 0.1, 1, 5 or 10 mg/mL respectively together with APAP 15 mM for 24 hours (FIG. 2A).
as §1, with “liver” for “kidney”, “(Chang liver” for “(LLC-PK1”, “24” for “2”, “APAP 15 mM” for “GM 5 mg/mL”, “24” for “4”, “2B).” for “1B).”

ICR mice [3] = experiment: Kidney function protection against cisplatin kidney toxicity in mice, serum creatinine; assay type: in vivo; settings: CHP 1 mg/kg orally daily for 1 week, then cisplatin 10 mg/kg i.p., serum after 72 hours, FIG. 5
Description: (§2) Five mice were grouped into one group. We fed water and food to mice in the cage. We adapted the mice for experiments for one week prior to the experiment.

ICR mice [4] = experiment: Kidney function protection against cisplatin kidney toxicity in mice, serum BUN; assay type: in vivo; settings: CHP 1 mg/kg orally daily for 1 week, then cisplatin i.p., serum after 24 hours, FIG. 6
Description: as §2

SD mice = experiment: Liver function protection against cisplatin liver toxicity in mice, serum ALT and AST; assay type: in vivo; settings: CHP 1, 5 or 10 mg/L in drinking water for 1 week, then cisplatin 7.5 mg/kg i.p., serum after 24 hours
Procedure: To determine the protective effect of CHP on liver toxicity in mice, the present inventors purchased SD mice from Koatech, and the mice were raised under constant conditions (temperature: 23±3° C., relative humidity: 55±10%, daily cycle: 12 hours). Five mice were grouped into one group. We fed water and food to mice in the cage. We adapted the mice for experiments for one week prior to the experiment. After the adaption period, the mice were grouped into five groups.
1 group ingested water and was set as a negative control. […] These 3, 4 and 5 groups were set as liver damage prevention effect groups. The CHP ingestion using drinking water was performed once every two days.
To measure ALT and AST, we collected blood from the abdominal aorta from a mouse. We separated only serum from the blood using a centrifugal separator and analyzed the serum using an automatic analyzer (Hitachi 7180; Tokyo, Japan).
We conducted individual comparisons using the […] post-test thereon.

## gentamicin [GM, reference compound]
[1]; GM 5 mg/mL
  apoptosis of kidney cells caused by the drug: induced apoptosis of kidney cells

## CC(=O)Nc1ccc(O)cc1 [APAP, acetaminophen, reference compound]
[2]; APAP 15 mM
  apoptosis of liver cells caused by the drug: induced apoptosis of liver cells

## O=C1N[C@@H](Cc2c[nH]cn2)C(=O)N2CCC[C@@H]12 [CHP, cyclo histidine-proline]
[1]; CHP 0.1, 1, 5 or 10 mg/mL pre-treatment 2 hours, then GM 5 mg/mL 4 hours, FIG. 1B
  inhibition of gentamicin (GM)-induced apoptosis, kidney cells pre-treated with CHP: greatly inhibited
[1]; CHP 0.1, 1, 5 or 10 mg/mL, GM 5 mg/mL, FIG. 1A and 1B
  inhibition of apoptosis of kidney cells induced by gentamicin (GM): inhibited the apoptosis of kidney cells induced by the gentamicin (GM) in a concentration-dependent manner
ICR mice [3]
  cisplatin-induced creatinine: significantly reduced
ICR mice [4]
  cisplatin-induced BUN: significantly reduced
[2]; CHP 0.1, 1, 5 or 10 mg/mL together with APAP 15 mM for 24 hours, FIG. 2A
  inhibition of acetaminophen (APAP)-induced apoptosis, liver cells co-treated with APAP and CHP: significantly inhibited
[2]; CHP 0.1, 1, 5 or 10 mg/mL, APAP 15 mM, FIG. 2A and 2B
  inhibition of apoptosis of liver cells induced by acetaminophen (APAP): inhibited the apoptosis of liver cells induced by the acetaminophen (APAP) in a concentration-dependent manner
SD mice; FIG. 3
  cisplatin-induced ALT: significantly reduced
SD mice; FIG. 4
  cisplatin-induced AST: significantly reduced

Source: patent publication US11890317B2, “Cell-protecting composition containing cyclo histidine-proline as active ingredient” (NovMetaPharma Co., Ltd., priority 2016, dated 2024)
